{
  "source": "ChEMBL document CHEMBL1201862",
  "about": "“PubChem BioAssay data set” (2004)",
  "key": {"Streptococcus": {"tested_on": "Streptococcus", "assay": "GAS UMAA2166 growth inhibition – luminescence, BacTiterGlo, counter-screen for streptokinase expression inhibitor project, dose response (AID 1915);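 note: potency for reduction of bacterial viability or growth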", "type": "functional, organism-based"}, "[1]": {"assay": "HEK-293T viability loss after treatment – luminescence, T-cell screen hits, cytotoxicity control for TCR NF-kB inhibitor project, dose response (AID 489026);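 note: cells exposed to compound about 14 hours before the viability readout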", "type": "functional, cell-based"}, "Hexokinase HKDC1": {"molecular_target": "T1, Hexokinase HKDC1 (Homo sapiens, UniProt Q2TB90)", "T1 sequence (Q2TB90 whole entry)": "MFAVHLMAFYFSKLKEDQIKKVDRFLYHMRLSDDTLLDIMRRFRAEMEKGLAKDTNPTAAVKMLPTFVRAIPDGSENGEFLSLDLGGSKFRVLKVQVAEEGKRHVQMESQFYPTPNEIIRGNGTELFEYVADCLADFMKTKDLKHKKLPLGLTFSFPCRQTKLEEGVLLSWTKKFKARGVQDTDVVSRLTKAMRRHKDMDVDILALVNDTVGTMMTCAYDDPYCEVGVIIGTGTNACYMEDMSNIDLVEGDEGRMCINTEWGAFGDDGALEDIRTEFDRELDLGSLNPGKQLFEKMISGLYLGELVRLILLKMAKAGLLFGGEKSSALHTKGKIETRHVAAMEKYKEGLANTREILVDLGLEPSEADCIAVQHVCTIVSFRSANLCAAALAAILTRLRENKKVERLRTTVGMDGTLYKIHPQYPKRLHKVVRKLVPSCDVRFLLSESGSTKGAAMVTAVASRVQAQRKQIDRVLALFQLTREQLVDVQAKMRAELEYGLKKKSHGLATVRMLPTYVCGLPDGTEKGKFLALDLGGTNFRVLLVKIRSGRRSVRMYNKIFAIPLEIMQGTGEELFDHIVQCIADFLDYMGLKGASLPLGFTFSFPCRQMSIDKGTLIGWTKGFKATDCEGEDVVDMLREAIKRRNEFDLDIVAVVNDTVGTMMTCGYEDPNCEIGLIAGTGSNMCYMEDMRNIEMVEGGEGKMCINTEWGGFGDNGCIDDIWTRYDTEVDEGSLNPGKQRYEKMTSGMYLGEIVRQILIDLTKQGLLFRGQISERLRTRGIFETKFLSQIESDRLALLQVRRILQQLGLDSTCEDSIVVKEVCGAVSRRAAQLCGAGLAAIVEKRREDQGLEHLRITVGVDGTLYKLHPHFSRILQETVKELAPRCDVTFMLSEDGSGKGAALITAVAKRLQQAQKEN", "assay": "inhibition of HKDC1 glucose phosphorylation – biochemical, W721R variant, dose response (AID 504729)", "type": "functional"}, "[2]": {"molecular_target": "Sphingosine 1-phosphate receptor 1 (Homo sapiens, UniProt P21453)", "sequence (P21453 whole entry)": "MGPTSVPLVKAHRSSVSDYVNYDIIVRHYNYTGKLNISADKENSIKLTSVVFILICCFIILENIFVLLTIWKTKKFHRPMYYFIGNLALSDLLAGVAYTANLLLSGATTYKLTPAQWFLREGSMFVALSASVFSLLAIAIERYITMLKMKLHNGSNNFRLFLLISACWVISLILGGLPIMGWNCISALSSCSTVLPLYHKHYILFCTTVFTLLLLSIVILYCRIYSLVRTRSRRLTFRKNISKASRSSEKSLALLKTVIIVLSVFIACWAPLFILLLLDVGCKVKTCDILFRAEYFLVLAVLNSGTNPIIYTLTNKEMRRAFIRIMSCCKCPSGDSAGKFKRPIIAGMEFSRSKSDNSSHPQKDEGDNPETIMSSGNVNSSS", "type": "functional"}, "[3]": {"molecular_target": "cAMP-dependent protein kinase catalytic subunit PRKX (Homo sapiens, UniProt P51817)", "type": "functional"}, "[4]": {"molecular_target": "Cyclin-dependent kinase 9 (Homo sapiens, UniProt P50750)", "type": "functional"}, "[5]": {"molecular_target": "3-phosphoinositide-dependent protein kinase 1 (Homo sapiens, UniProt O15530)", "type": "functional"}, "[6]": {"molecular_target": "Receptor tyrosine-protein kinase erbB-2 (Homo sapiens, UniProt P04626)", "assay": "Navigating the Kinome. Panel member name: ERBB2", "type": "functional"}, "[7]": {"molecular_target": "Tyrosine-protein kinase Fer (Homo sapiens, UniProt P16591)", "sequence (P16591 whole entry)": "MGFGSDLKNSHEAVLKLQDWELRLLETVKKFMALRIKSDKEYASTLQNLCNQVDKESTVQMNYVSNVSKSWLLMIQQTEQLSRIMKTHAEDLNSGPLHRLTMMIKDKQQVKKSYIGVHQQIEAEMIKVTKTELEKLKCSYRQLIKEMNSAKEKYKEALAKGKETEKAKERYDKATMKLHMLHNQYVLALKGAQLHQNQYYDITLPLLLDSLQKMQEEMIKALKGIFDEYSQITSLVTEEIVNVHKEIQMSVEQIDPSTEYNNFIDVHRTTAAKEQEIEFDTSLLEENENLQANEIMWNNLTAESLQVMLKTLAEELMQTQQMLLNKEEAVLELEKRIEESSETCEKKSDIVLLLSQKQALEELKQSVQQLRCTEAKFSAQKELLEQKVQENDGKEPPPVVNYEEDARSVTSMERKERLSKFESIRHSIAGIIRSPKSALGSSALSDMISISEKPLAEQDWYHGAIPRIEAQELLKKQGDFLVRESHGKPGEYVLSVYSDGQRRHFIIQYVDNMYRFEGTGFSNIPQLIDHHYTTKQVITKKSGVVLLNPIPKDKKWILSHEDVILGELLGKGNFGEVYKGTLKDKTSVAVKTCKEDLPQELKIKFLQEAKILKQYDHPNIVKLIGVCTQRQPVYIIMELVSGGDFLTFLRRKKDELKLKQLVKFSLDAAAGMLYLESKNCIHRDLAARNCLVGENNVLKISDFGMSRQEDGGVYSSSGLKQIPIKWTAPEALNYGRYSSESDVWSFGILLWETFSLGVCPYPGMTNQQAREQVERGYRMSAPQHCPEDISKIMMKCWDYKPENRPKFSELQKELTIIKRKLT", "type": "functional"}, "[8]": {"molecular_target": "Rho-associated protein kinase 1 (Homo sapiens, UniProt Q13464)", "sequence (Q13464 whole entry)": "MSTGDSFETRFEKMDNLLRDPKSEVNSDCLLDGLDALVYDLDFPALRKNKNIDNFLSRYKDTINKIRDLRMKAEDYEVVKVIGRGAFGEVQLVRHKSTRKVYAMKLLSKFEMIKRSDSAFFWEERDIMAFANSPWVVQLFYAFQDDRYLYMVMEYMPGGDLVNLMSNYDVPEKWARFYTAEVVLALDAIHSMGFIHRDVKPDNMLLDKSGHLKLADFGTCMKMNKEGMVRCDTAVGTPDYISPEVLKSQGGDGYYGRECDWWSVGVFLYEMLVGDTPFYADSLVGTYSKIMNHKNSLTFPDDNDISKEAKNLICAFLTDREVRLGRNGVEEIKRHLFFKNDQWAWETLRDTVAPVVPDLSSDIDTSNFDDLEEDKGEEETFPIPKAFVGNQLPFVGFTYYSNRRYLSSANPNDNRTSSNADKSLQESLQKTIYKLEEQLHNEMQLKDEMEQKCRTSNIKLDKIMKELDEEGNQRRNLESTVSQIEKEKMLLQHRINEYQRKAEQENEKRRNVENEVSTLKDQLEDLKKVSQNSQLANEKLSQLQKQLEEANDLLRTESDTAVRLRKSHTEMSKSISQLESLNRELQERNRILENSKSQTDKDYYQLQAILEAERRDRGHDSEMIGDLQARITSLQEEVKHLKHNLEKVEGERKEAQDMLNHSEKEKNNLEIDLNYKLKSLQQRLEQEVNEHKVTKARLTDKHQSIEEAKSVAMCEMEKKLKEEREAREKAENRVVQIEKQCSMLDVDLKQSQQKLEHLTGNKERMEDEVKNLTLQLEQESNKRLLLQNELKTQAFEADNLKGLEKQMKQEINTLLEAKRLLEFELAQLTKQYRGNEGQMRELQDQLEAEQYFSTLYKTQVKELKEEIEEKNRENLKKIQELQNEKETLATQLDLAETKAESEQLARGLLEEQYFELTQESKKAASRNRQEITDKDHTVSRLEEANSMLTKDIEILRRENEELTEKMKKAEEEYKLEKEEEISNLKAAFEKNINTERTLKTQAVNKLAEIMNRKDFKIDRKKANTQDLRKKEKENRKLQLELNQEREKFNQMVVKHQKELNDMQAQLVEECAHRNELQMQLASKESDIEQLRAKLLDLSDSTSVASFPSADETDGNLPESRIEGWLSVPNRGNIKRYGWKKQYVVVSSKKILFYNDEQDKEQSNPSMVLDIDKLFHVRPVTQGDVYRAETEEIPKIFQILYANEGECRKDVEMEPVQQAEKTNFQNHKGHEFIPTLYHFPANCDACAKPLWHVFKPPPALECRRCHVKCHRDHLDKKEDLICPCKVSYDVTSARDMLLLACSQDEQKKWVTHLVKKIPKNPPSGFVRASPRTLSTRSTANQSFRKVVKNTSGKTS", "type": "functional"}, "[9]": {"molecular_target": "MAP kinase-activated protein kinase 3 (Homo sapiens, UniProt Q16644)", "sequence (Q16644 whole entry)": "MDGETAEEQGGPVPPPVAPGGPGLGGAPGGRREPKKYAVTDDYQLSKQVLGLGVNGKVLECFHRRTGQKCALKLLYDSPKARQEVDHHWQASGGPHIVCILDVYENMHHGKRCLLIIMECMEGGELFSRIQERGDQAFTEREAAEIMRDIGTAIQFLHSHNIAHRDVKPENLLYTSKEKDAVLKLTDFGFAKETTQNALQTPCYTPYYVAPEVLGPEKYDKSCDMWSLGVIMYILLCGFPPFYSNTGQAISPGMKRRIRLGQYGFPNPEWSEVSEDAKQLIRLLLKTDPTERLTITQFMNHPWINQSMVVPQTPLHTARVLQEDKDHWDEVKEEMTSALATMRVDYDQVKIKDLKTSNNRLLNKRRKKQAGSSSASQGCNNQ", "type": "functional"}, "[10]": {"molecular_target": "Platelet-derived growth factor receptor beta (Homo sapiens, UniProt P09619)", "type": "functional"}, "[11]": {"molecular_target": "Lymphokine-activated killer T-cell-originated protein kinase (Homo sapiens, UniProt Q96KB5)", "sequence (Q96KB5 whole entry)": "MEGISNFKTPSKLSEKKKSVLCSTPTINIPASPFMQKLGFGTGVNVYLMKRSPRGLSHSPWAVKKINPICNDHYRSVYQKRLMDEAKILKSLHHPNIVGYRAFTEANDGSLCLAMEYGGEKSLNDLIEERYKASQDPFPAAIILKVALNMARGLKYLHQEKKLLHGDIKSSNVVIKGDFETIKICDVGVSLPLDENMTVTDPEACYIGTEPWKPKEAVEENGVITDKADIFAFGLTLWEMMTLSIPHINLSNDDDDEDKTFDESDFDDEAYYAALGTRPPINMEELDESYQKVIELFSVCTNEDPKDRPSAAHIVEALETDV", "type": "functional"}, "[12]": {"molecular_target": "Serine/threonine-protein kinase pim-3 (Homo sapiens, UniProt Q86V86)", "type": "functional"}, "[13]": {"molecular_target": "Testis-specific serine/threonine-protein kinase 2 (Homo sapiens, UniProt Q96PF2)", "sequence (Q96PF2 whole entry)": "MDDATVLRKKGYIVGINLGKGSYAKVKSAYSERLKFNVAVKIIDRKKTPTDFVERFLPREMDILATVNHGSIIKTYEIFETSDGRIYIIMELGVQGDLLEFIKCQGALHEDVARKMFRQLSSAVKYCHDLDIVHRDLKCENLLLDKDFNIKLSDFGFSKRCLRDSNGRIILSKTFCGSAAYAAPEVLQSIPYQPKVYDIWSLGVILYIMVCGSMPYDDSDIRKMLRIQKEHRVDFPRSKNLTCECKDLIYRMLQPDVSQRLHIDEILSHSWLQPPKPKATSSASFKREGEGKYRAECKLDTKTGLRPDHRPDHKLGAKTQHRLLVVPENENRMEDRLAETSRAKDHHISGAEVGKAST", "type": "functional"}, "[14]": {"molecular_target": "Epidermal growth factor receptor (Homo sapiens, UniProt P00533)"}, "[15]": {"molecular_target": "Calcium/calmodulin-dependent protein kinase type II subunit alpha (Homo sapiens, UniProt Q9UQM7)", "sequence (Q9UQM7 whole entry)": "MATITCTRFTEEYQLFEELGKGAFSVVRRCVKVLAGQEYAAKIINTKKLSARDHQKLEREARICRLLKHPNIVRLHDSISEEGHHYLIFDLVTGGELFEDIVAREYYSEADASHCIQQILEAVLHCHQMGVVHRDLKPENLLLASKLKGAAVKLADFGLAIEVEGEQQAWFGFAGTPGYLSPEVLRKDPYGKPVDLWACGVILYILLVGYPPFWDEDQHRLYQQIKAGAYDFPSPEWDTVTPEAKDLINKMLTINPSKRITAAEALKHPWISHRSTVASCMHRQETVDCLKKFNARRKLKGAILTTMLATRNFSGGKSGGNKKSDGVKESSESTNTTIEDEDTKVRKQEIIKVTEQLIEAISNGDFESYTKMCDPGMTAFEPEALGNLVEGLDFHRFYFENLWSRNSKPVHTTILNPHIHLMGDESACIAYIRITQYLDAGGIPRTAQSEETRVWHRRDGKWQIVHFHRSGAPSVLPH", "assay": "Navigating the Kinome. Panel member name: CAMK2A", "type": "functional"}, "[16]": {"molecular_target": "High affinity nerve growth factor receptor (Homo sapiens, UniProt P04629)", "type": "functional"}, "[17]": {"molecular_target": "Protein-tyrosine kinase 2-beta (Homo sapiens, UniProt Q14289)", "type": "functional"}, "SRSF protein kinase 1": {"molecular_target": "SRSF protein kinase 1 (Homo sapiens, UniProt Q96SB4)", "type": "functional"}, "[18]": {"molecular_target": "Serine/threonine-protein kinase Chk1 (Homo sapiens, UniProt O14757)", "sequence (O14757 whole entry)": "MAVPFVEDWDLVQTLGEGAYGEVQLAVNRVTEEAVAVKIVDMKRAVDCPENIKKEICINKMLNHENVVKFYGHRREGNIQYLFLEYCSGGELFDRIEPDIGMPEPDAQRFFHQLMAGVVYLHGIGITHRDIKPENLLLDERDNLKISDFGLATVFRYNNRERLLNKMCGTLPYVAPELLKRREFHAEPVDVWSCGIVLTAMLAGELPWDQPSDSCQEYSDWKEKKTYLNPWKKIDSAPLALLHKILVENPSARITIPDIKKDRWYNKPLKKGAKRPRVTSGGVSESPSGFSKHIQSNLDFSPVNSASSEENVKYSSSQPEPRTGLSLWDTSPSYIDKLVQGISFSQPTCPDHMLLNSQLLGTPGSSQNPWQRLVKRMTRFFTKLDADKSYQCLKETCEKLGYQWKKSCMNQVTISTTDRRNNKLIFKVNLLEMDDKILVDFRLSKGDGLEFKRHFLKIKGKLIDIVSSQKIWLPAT", "type": "functional"}, "Aurora kinase A": {"molecular_target": "Aurora kinase A (Homo sapiens, UniProt O14965)", "sequence (O14965 whole entry)": "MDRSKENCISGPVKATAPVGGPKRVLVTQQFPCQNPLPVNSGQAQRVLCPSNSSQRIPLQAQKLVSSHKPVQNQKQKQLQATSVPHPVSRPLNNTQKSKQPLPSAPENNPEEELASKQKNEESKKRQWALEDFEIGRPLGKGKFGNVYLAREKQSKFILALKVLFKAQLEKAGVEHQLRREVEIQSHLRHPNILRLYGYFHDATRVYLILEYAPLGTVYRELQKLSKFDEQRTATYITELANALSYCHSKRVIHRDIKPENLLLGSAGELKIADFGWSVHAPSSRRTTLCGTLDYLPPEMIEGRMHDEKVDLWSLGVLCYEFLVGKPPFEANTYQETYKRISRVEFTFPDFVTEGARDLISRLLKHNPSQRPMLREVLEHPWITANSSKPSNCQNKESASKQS", "type": "functional"}},
  "note": "The source made the active and inactive calls.",
  "data": [
    {"smiles": "COC(=O)C1CN(C#N)N(c2ccc(Cl)cc2)C12c1ccccc1-c1ccccc12", "note": "(configuration not stated)", "values": [
      {"measurement": "EC50", "setting": "Streptococcus", "value": "20.7 µM (active)"},
      {"measurement": "IC50", "setting": "[1]", "value": "56.6 µM (inactive)"},
      {"measurement": "IC50", "setting": "Hexokinase HKDC1", "value": "3.81 µM (active)"},
      {"measurement": "IC50", "setting": "[2]", "value": "5.76 µM (active)"}
    ]},
    {"smiles": "Nc1noc2cccc(-c3cccc(O)c3)c12", "values": [
      {"measurement": "Ki", "setting": "[3]", "value": "5.01 µM (active)"},
      {"measurement": "Ki", "setting": "[4]", "value": "15.8 µM (active)"},
      {"measurement": "Ki", "setting": "[5]", "value": "> 3.98 µM (inactive)"},
      {"measurement": "Ki", "setting": "[6]", "value": "> 1.58 µM (inactive)"},
      {"measurement": "Ki", "setting": "[7]", "value": "> 1.58 µM (inactive)"},
      {"measurement": "Ki", "setting": "[8]", "value": "1 µM (active)"},
      {"measurement": "Ki", "setting": "[9]", "value": "> 10 µM (inactive)"},
      {"measurement": "Ki", "setting": "[10]", "value": "7.94 µM (active)"},
      {"measurement": "Ki", "setting": "[11]", "value": "> 10 µM (inactive)"},
      {"measurement": "Ki", "setting": "[12]", "value": "> 7.94 µM (inactive)"},
      {"measurement": "Ki", "setting": "[13]", "value": "> 1.58 µM (inactive)"},
      {"measurement": "Ki", "setting": "[14]", "value": "> 2 µM (inactive)"},
      {"measurement": "Ki", "setting": "[15]", "value": "50.1 µM (active)"},
      {"measurement": "Ki", "setting": "[16]", "value": "> 2.51 µM (inactive)"},
      {"measurement": "Ki", "setting": "[17]", "value": "> 1.58 µM (inactive)"},
      {"measurement": "Ki", "setting": "SRSF protein kinase 1", "value": "7.94 µM (active)"},
      {"measurement": "Ki", "setting": "[18]", "value": "> 7.94 µM (inactive)"},
      {"measurement": "Ki", "setting": "Aurora kinase A", "value": "> 31.6 µM (inactive)"}
    ]}
  ]
}
